Source: PubChem BioAssay (NCI)
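All cell lines were grown in 96-well plates and treated with compound for 48 hours. At the TGI there is no net growth.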

Tests used:
Assay in all cases: NCI-60 cell line screen, 48 h
[1] = test system: A549 NSCLC
[2] = test system: HS 578T breast
[3] = test system: SK-MEL-2 melanoma
[4] = test system: BT-549 breast
[5] = test system: 786-0 renal
[6] = test system: NCI-H23 lung
[7] = test system: NCI/ADR-RES ovarian
[8] = test system: UACC-62 melanoma
[9] = test system: SF-295 CNS
[10] = test system: OVCAR-3 ovarian
[11] = test system: HL-60(TB) leukemia
[12] = test system: COLO 205 colon
[13] = test system: HOP-62 NSCLC
[14] = test system: SF-268 CNS
[15] = test system: SR leukemia
[16] = test system: SN12C renal
[17] = test system: A498 renal
[18] = test system: OVCAR-8 ovarian
[19] = test system: MDA-MB-435
[20] = test system: MALME-3M melanoma
[21] = test system: SW-620 colon
[22] = test system: DU-145 prostate
[23] = test system: SK-OV-3 ovarian
[24] = test system: NCI-H522 lung
[25] = test system: K-562 leukemia
[26] = test system: IGROV1 ovarian
[27] = test system: U251 CNS
[28] = test system: KM12 colon
[29] = test system: LOX IMVI melanoma
[30] = test system: UACC-257 melanoma
[31] = test system: M14 melanoma
[32] = test system: UO-31 renal
[33] = test system: MOLT-4 leukemia
[34] = test system: MDA-MB-231 breast
[35] = test system: HCT-116 colon
[36] = test system: OVCAR-5 ovarian
[37] = test system: OVCAR-4 ovarian
[38] = test system: RXF 393 renal
[39] = test system: CAKI-1 renal
[40] = test system: MDA-N
[41] = test system: MCF7 breast
[42] = test system: ACHN renal
[43] = test system: RPMI-8226 leukemia
[44] = test system: SK-MEL-28 melanoma
[45] = test system: NCI-H460 lung
[46] = test system: SNB-75 CNS
[47] = test system: T-47D breast
[48] = test system: HOP-92 NSCLC
[49] = test system: CCRF-CEM leukemia
[50] = test system: SK-MEL-5 melanoma
[51] = test system: HT29 colon
[52] = test system: HCT-15 colon
[53] = test system: TK-10 renal
[54] = test system: SNB-19 CNS
[55] = test system: NCI-H226 lung
[56] = test system: HCC-2998 colon
[57] = test system: PC-3 prostate
[58] = test system: EKVX NSCLC

COC(=O)C[C@H]1[C@]2(C)C3=C(C)[C@H](c4ccoc4)CC3O[C@@H]2[C@@H]2OC(=O)[C@]3(C)CCC(=O)[C@@]1(C)[C@@H]23 (some centres not stated)
TGI [1]: > 100 µM | TGI [2]: > 100 µM | TGI [3]: > 100 µM | TGI [4]: > 100 µM | TGI [5]: > 100 µM | TGI [6]: > 100 µM | TGI [7]: > 100 µM | TGI [8]: > 100 µM | TGI [9]: > 100 µM | TGI [10]: > 100 µM | TGI [11]: 54.8 µM | TGI [12]: > 100 µM | TGI [13]: > 100 µM | TGI [14]: > 100 µM | TGI [15]: 59.6 µM | TGI [16]: > 100 µM | TGI [17]: > 100 µM | TGI [18]: > 100 µM | TGI [19]: > 100 µM | TGI [20]: > 100 µM | TGI [21]: > 100 µM | TGI [22]: > 100 µM | TGI [23]: > 100 µM | TGI [24]: 91.1 µM | TGI [25]: > 100 µM | TGI [26]: > 100 µM | TGI [27]: > 100 µM | TGI [28]: > 100 µM | TGI [29]: > 100 µM | TGI [30]: > 100 µM | TGI [31]: > 100 µM | TGI [32]: > 100 µM | TGI [33]: 46.8 µM | TGI [34]: > 100 µM | TGI [35]: > 100 µM | TGI [36]: 67.3 µM | TGI [37]: > 100 µM | TGI [38]: > 100 µM | TGI [39]: > 100 µM | TGI [40]: > 100 µM | TGI [41]: > 100 µM | TGI [42]: > 100 µM | TGI [43]: 50.1 µM | TGI [44]: > 100 µM | TGI [45]: > 100 µM | TGI [46]: > 100 µM | TGI [47]: > 100 µM | TGI [48]: > 100 µM | TGI [49]: 45.1 µM | TGI [50]: > 100 µM | TGI [51]: > 100 µM | TGI [52]: > 100 µM

CCCCN=C(OC1C=CCCC1)SC (configuration not stated)
TGI [1]: > 100 µM | TGI [4]: > 100 µM | TGI [5]: > 100 µM | TGI [6]: > 100 µM | TGI [7]: > 100 µM | TGI [8]: > 100 µM | TGI [9]: > 100 µM | TGI [53]: > 100 µM | TGI [54]: > 100 µM | TGI [10]: > 100 µM | TGI [55]: > 100 µM | TGI [11]: > 100 µM | TGI [12]: > 100 µM | TGI [13]: > 100 µM | TGI [14]: > 100 µM | TGI [15]: > 100 µM | TGI [56]: > 100 µM | TGI [16]: > 100 µM | TGI [17]: > 100 µM | TGI [18]: > 100 µM | TGI [19]: > 100 µM | TGI [20]: > 100 µM | TGI [21]: > 100 µM | TGI [22]: > 100 µM | TGI [23]: > 100 µM | TGI [25]: > 100 µM | TGI [26]: > 100 µM | TGI [27]: > 100 µM | TGI [30]: > 100 µM | TGI [31]: > 100 µM | TGI [32]: > 100 µM | TGI [33]: > 100 µM | TGI [57]: > 100 µM | TGI [34]: > 100 µM | TGI [35]: > 100 µM | TGI [36]: > 100 µM | TGI [37]: > 100 µM | TGI [58]: > 100 µM | TGI [40]: > 100 µM | TGI [41]: > 100 µM | TGI [42]: > 100 µM | TGI [43]: > 100 µM | TGI [44]: > 100 µM | TGI [46]: > 100 µM | TGI [47]: > 100 µM | TGI [48]: > 100 µM | TGI [49]: > 100 µM | TGI [50]: > 100 µM | TGI [51]: > 100 µM | TGI [52]: > 100 µM
